Measurements taken from patent US11142515B2, “Pyrazolyl-ureas as kinase inhibitors” (RESPIVERT LIMITED, priority 2014, dated 2021).

Key:
[1] = biological target: T1, p38 MAPKα isoform (MAPK14) (Homo sapiens, UniProt Q16539); assay: p38 MAPKα enzyme inhibition (Z-LYTE FRET); format: biochemical; details: Table 2B, unit inferred; read-out: p38 MAPKα (Enzyme Profile)
T1 construct: purchased Life Technologies
Outline: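 Activity was measured indirectly as phosphorylation of a MAPKAP-K2-derived FRET peptide. Enzyme (added at 40 ng/mL) was preincubated 2 h at RT with compound (added solutions 40–0.0012 μg/mL).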

p38MAPKγ (MAPK12) = biological target: T2, p38MAPKγ (MAPK12) (Homo sapiens, UniProt P53778); assay: p38 MAPKγ enzyme inhibition (Z-LYTE FRET); format: biochemical; details: Table 2B, unit inferred; read-out: p38 MAPKγ (Enzyme Profile)
T2 construct: purchased Life Technologies
T2 sequence (P53778 1-367): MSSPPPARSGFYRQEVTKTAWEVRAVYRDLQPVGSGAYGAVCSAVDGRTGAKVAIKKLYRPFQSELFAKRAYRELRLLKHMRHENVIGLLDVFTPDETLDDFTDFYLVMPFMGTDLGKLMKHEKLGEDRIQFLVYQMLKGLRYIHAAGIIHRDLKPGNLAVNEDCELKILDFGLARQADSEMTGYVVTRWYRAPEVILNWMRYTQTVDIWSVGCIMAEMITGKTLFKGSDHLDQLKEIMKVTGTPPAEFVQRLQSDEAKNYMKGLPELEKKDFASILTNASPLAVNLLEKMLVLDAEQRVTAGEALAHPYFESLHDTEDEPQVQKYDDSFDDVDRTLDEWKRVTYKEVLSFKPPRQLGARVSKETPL
Outline: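 Enzyme (added at 800 ng/mL) was preincubated 2 h at RT with compound (solutions of 40 to 0.0012 μg/mL), then FRET peptide (8 μM) and ATP (400 μM), both as added, were reacted 1 h at RT. Protease development followed for 1 h; phosphorylation was read as the coumarin/fluorescein emission ratio.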

T1 sequence (Q16539 whole entry, canonical isoform): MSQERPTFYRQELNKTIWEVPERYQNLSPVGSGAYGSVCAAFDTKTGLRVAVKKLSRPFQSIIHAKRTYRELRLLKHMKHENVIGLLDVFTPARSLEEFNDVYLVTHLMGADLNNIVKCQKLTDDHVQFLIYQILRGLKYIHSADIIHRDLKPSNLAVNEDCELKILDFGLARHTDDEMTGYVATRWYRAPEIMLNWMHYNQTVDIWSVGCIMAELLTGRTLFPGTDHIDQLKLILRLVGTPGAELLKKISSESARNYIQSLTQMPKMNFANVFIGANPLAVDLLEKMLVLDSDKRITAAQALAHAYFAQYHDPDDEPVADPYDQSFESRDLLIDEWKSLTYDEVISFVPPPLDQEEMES

Compound | IC50 [1] [nM] | IC50 (p38MAPKγ (MAPK12)) [nM]
Cc1cc(F)cc(-n2nc(C(C)(C)C)cc2NC(=O)Nc2ccc(OCc3ccnc(Nc4cnccn4)c3)c3ccccc23)c1 [Example 181, 1-(3-(tert-butyl)-1-(3-fluoro-5-methylphenyl)-1H-pyrazol-5-yl)-3-(4-((2-(pyrazin-2-ylamino)pyridin-4-yl)methoxy)naphthalen-1-yl)urea] | 15 | 64
Cc1ccc(-n2nc(C(C)(C)C)cc2NC(=O)Nc2ccc(OCc3ccnc(Nc4cnc(C)c(C)n4)c3)c3ccccc23)cc1F [Example 182, 1-(3-(tert-butyl)-1-(3-fluoro-4-methylphenyl)-1H-pyrazol-5-yl)-3-(4-((2-((5,6-dimethylpyrazin-2-yl)amino)pyridin-4-yl)methoxy)naphthalen-1-yl) urea] | 44 | 1140
CCOc1ccc(-n2nc(C(C)(C)C)cc2NC(=O)Nc2ccc(OCc3ccnc(Nc4cnccn4)c3)c3ccccc23)cc1F [Example 183, 1-(3-(tert-butyl)-1-(4-ethoxy-3-fluorophenyl)-1H-pyrazol-5-yl)-3-(4-((2-(pyrazin-2-ylamino)pyridin-4-yl)methoxy)naphthalen-1-yl) urea] | 38 | > 15500
CCOc1cccc(-n2nc(C(C)(C)C)cc2NC(=O)Nc2ccc(OCc3ccnc(Nc4cnccn4)c3)c3ccccc23)c1 [Example 184, 1-(3-(tert-butyl)-1-(3-ethoxyphenyl)-1H-pyrazol-5-yl)-3-(4-((2-(pyrazin-2-ylamino)pyridin-4-yl)methoxy)naphthalen-1-yl) urea] | 19 | > 15900
Cc1ccc(-n2nc(C(C)(C)C)cc2NC(=O)Nc2ccc(OCc3ccnc(Nc4cnc(C(=O)N5CCC(C)CC5)cn4)c3)c3ccccc23)cc1 [Example 185, 1-(3-(tert-butyl)-1-(p-tolyl)-1H-pyrazol-5-yl)-3-(4-((2-((5-(4-methylpiperidine-1-carbonyl)pyrazin-2-yl)amino)pyridin-4-yl)methoxy)naphthalen-1-yl) urea] | 110 | 2510
COCCCNC(=O)c1cnc(Nc2cc(COc3ccc(NC(=O)Nc4cc(C(C)(C)C)nn4-c4ccc(C)cc4)c4ccccc34)ccn2)cn1 [Example 186, 5-((4-(((4-(3-(3-(tert-butyl)-1-(p-tolyl)-1H-pyrazol-5-yl)ureido)naphthalen-1-yl)oxy)methyl)pyridin-2-yl)amino)-N-(3-methoxypropyl) pyrazine-2-carboxamide] | 25 | > 14000
CC(C)(C)c1cc(NC(=O)Nc2ccc(OCc3ccnc(Nc4cnccn4)c3)c3ccccc23)n(-c2ccc(F)cc2)n1 [Example 187, 1-(3-(tert-butyl)-1-(4-fluorophenyl)-1H-pyrazol-5-yl)-3-(4-((2-(pyrazin-2-ylamino)pyridin-4-yl)methoxy)naphthalen-1-yl) urea] | 16 | 180
COCCCc1cnc(Nc2cc(COc3ccc(NC(=O)Nc4cc(C(C)(C)C)nn4-c4ccc(C)cc4)c4ccccc34)ccn2)cn1 [Example 188, 1-(3-(tert-butyl)-1-(p-tolyl)-1H-pyrazol-5-yl)-3-(4-((2-((5-(3-methoxypropyl)pyrazin-2-yl)amino)pyridin-4-yl)methoxy)naphthalen-1-yl)urea] | 32 | 442
CCCc1cncc(Nc2cc(COc3ccc(NC(=O)Nc4cc(C(C)(C)C)nn4-c4cccc(OC)c4)c4ccccc34)ccn2)n1 [Example 189, 1-(3-(tert-butyl)-1-(3-methoxyphenyl)-1H-pyrazol-5-yl)-3-(4-((2-((6-propyl-pyrazin-2-yl)amino)pyridin-4-yl)methoxy)naphthalen-1-yl)urea] | 72 | 579
COCc1cnc(Nc2cc(COc3ccc(NC(=O)Nc4cc(C(C)(C)C)nn4-c4ccc(C)cc4)c4ccccc34)ccn2)cn1 [Example 190, 1-(3-(tert-butyl)-1-(p-tolyl)-1H-pyrazol-5-yl)-3-(4-((2-((5-(methoxymethyl)pyrazin-2-yl)amino)pyridin-4-yl)methoxy)naphthalen-1-yl) urea] | 23 | 232

Further lines, results first:

IC50 [1] [nM] | IC50 (p38MAPKγ (MAPK12)) [nM] | Compound
47 | 460 | CCNC(=O)c1cnc(Nc2cc(COc3ccc(NC(=O)Nc4cc(C(C)(C)C)nn4-c4ccc(C)cc4)c4ccccc34)ccn2)cn1 [Example 191, 5-((4-(((4-(3-(3-(tert-butyl)-1-(p-tolyl)-1H-pyrazol-5-yl)ureido)naphthalen-1-yl)oxy)methyl)pyridin-2-yl)amino)-N-ethylpyrazine-2-carboxamide]
46 | > 14600 | CCCNC(=O)c1cnc(Nc2cc(COc3ccc(NC(=O)Nc4cc(C(C)(C)C)nn4-c4ccc(C)cc4)c4ccccc34)ccn2)cn1 [Example 192, 5-((4-(((4-(3-(3-(tert-butyl)-1-(p-tolyl)-1H-pyrazol-5-yl)ureido)naphthalen-1-yl)oxy)methyl)pyridin-2-yl)amino)-N-propylpyrazine-2-carboxamide]
89 | > 14300 | Cc1ccc(-n2nc(C(C)(C)C)cc2NC(=O)Nc2ccc(OCc3ccnc(Nc4cnc(C(=O)N5CC(F)C5)cn4)c3)c3ccccc23)cc1 [Example 193, 1-(3-(tert-butyl)-1-(p-tolyl)-1H-pyrazol-5-yl)-3-(4-((2-((5-(3-fluoroazetidine-1-carbonyl)pyrazin-2-yl)amino)pyridin-4-yl)methoxy)naphthalen-1-yl)urea]
207 | 8410 | CCCc1cncc(Nc2cc(COc3ccc(NC(=O)Nc4cc(C(C)(C)C)nn4-c4ccc(C)c(F)c4)c4ccccc34)ccn2)n1 [Example 194, 1-(3-(tert-butyl)-1-(3-fluoro-4-methylphenyl)-1H-pyrazol-5-yl)-3-(4-((2-((6-propyl-pyrazin-2-yl)amino)pyridin-4-yl)methoxy)naphthalen-1-yl)urea]
15 | 245 | COCc1cnc(Nc2cc(COc3ccc(NC(=O)Nc4cc(C(C)(C)C)nn4-c4cccc(C)c4)c4ccccc34)ccn2)cn1 [Example 195, 1-(3-(tert-butyl)-1-(m-tolyl)-1H-pyrazol-5-yl)-3-(4-((2-((5-(methoxymethyl)pyrazin-2-yl)amino)pyridin-4-yl)methoxy)naphthalen-1-yl) urea]
29 | 219 | COc1cc(C)cc(-n2nc(C(C)(C)C)cc2NC(=O)Nc2ccc(OCc3ccnc(Nc4cnccn4)c3)c3ccccc23)c1 [Example 196, 1-(3-(tert-butyl)-1-(3-methoxy-5-methylphenyl)-1H-pyrazol-5-yl)-3-(4-((2-(pyrazin-2-ylamino)pyridin-4-yl)methoxy)naphthalen-1-yl)urea]
37 | > 15600 | CCOc1ccc(-n2nc(C(C)(C)C)cc2NC(=O)Nc2ccc(OCc3ccnc(Nc4cnccn4)c3)c3ccccc23)cc1C [Example 197, 1-(3-(tert-butyl)-1-(4-ethoxy-3-methylphenyl)-1H-pyrazol-5-yl)-3-(4-((2-(pyrazin-2-ylamino)pyridin-4-yl)methoxy)naphthalen-1-yl)urea]
10 | 111 | Cc1ccc(-n2nc(C(C)(C)C)cc2NC(=O)Nc2ccc(OCc3ccnc(Nc4cnccn4)c3)c3ccccc23)cn1 [Example 198, 1-(3-(tert-butyl)-1-(6-methylpyridin-3-yl)-1H-pyrazol-5-yl)-3-(4-((2-(pyrazin-2-ylamino)pyridin-4-yl)methoxy)naphthalen-1-yl)urea]
11 | > 13800 | CO[C@@H]1CCN(C(=O)c2cnc(Nc3cc(COc4ccc(NC(=O)Nc5cc(C(C)(C)C)nn5-c5cccc(C)c5)c5ccccc45)ccn3)cn2)C1 [Example 199, (R)-1-(3-(tert-butyl)-1-(m-tolyl)-1H-pyrazol-5-yl)-3-(4-((2-((5-(3-methoxy-pyrrolidine-1-carbonyl)pyrazin-2-yl)amino)pyridin-4-yl)methoxy)naphthalen-1-yl)urea]
13 | 1240 | CO[C@H]1CCN(C(=O)c2cnc(Nc3cc(COc4ccc(NC(=O)Nc5cc(C(C)(C)C)nn5-c5cccc(C)c5)c5ccccc45)ccn3)cn2)C1 [Example 200, (S)-1-(3-(tert-butyl)-1-(m-tolyl)-1H-pyrazol-5-yl)-3-(4-((2-((5-(3-methoxy-pyrrolidine-1-carbonyl)pyrazin-2-yl)amino)pyridin-4-yl)methoxy)naphthalen-1-yl)urea]
112 | 7900 | CCCc1cncc(Nc2cc(COc3ccc(NC(=O)Nc4cc(C(C)(C)C)nn4-c4cccc(C)c4)c4ccccc34)ccn2)n1 [Example 201, 1-(3-(tert-butyl)-1-(m-tolyl)-1H-pyrazol-5-yl)-3-(4-((2-((6-propylpyrazin-2-yl)amino)pyridin-4-yl)methoxy)naphthalen-1-yl)urea]
19 | 1130 | CC(C)(C)c1cc(NC(=O)Nc2ccc(OCc3ccnc(Nc4cnc(C(=O)N5CCCC5)cn4)c3)c3ccccc23)n(-c2cccc(F)c2)n1 [Example 202, 1-(3-(tert-butyl)-1-(3-fluorophenyl)-1H-pyrazol-5-yl)-3-(4-((2-((5-(pyrrolidine-1-carbonyl)pyrazin-2-yl)amino)pyridin-4-yl)methoxy)naphthalen-1-yl)urea]
